Data published in ChEMBL document CHEMBL4699496, “Exploring efficacy of natural-derived acetylphenol scaffold inhibitors for α-glucosidase: Synthesis, in vitro and in vivo biochemical studies” (Bioorg Med Chem Lett, 2020).
The source made the active and inactive calls. No cut-off for these calls is given here.

How the values were obtained:
[1] = Inhibition of alpha-glucosidase (unknown origin); set-up: species or system Homo sapiens
Homo sapiens [2] = species: Homo sapiens; test: Binding affinity to alpha-glucosidase (unknown origin) assessed as change in gibbs free energy at 298 K by Van't Hoff equation analysis
Homo sapiens [3] = species: Homo sapiens; test: Binding affinity to alpha-glucosidase (unknown origin) assessed as enzyme complexation with compound by measuring mean height of enzyme at 2.5 uM by atomic force microscopy (reference value: 0.87 nm)
Rattus norvegicus [4] = species: Rattus norvegicus; test: Inhibition of alpha-glucosidase in rat everted intestinal sleeves assessed as reduction in blood glucose AUC (0-90) outside of the intestinal sleeves at 0.173 mM; format: tissue-based; settings: Intestine, time min 0-90
Rattus norvegicus [5] = species: Rattus norvegicus; test: Inhibition of alpha-glucosidase in rat everted intestinal sleeves assessed as reduction in glucose concentration within intestinal sleeves at 0.173 mM measured for 5 to 90 mins; format: tissue-based; settings: Intestine, time min 5-90
Homo sapiens [6] = species: Homo sapiens; test: Binding affinity to alpha-glucosidase (unknown origin) assessed as decrease in fluorescence intensity of Tyr residue without shift in maximum emission wavelength at 0.33 to 3.22 uM by fluorescence based Synchronous fluorescence spectroscopy; settings: dose microM 0.33-3.22
Homo sapiens [7] = species: Homo sapiens; test: Binding affinity to alpha-glucosidase (unknown origin) assessed as enzyme complexation with compound at 2.5 uM by measuring mean width of enzyme by atomic force microscopy (reference value: 28.35 nm)
Mus musculus [8] = species: Mus musculus; test: Hypoglycemic activity in Kunming mouse assessed as reduction in maltose-induced blood glucose AUC (0 to 120 mins) by maltose loading test; format: functional, organism-based; settings: time min 0-120
Homo sapiens [9] = species: Homo sapiens; test: Binding affinity to alpha-glucosidase (unknown origin) assessed as change in gibbs free energy at 310 K by Van't Hoff equation analysis
Mus musculus [10] = species: Mus musculus; test: Hypoglycemic activity in Kunming mouse assessed as reduction in maltose-induced postprandial blood glucose level measured after 15 to 120 mins by maltose loading test; format: functional, organism-based; settings: time min 15-120
[11] = Binding affinity to alpha-glcosidase (unknown origin) using p-NPG as substrate; set-up: species or system Homo sapiens
Homo sapiens [12] = species: Homo sapiens; test: Binding affinity to alpha-glucosidase (unknown origin) assessed as fluorescence quenching at 0.33 to 3.66 uM by fluorescence spectral analysis; settings: dose microM 0.33-3.66
Homo sapiens [13] = species: Homo sapiens; test: Binding affinity to alpha-glucosidase (unknown origin) assessed as Stern-Volmer quenching constant at 304 K
Homo sapiens [14] = species: Homo sapiens; test: Binding affinity to alpha-glucosidase (unknown origin) assessed as quenching constant at 298 K
Homo sapiens [15] = species: Homo sapiens; test: Binding affinity to alpha-glucosidase (unknown origin) assessed as hydrophobic interactions by measuring change in enthalpy at 304 K by Van't Hoff equation analysis
Homo sapiens [16] = species: Homo sapiens; test: Binding affinity to alpha-glucosidase (unknown origin) assessed as change in gibbs free energy at 304 K by Van't Hoff equation analysis
Homo sapiens [17] = species: Homo sapiens; test: Binding affinity to alpha-glucosidase (unknown origin) assessed as hydrogen bonding interactions by measuring change in entropy at 304 K by Van't Hoff equation analysis
Homo sapiens [18] = species: Homo sapiens; test: Binding affinity to alpha-glucosidase (unknown origin) assessed as decrease in fluorescence intensity of Trp residue without shift in maximum emission wavelength at 0.33-3.22 uM by fluorescence based Synchronous fluorescence spectroscopy; settings: dose microM 0.33-3.22
Homo sapiens [19] = species: Homo sapiens; test: Binding affinity to alpha-glucosidase (unknown origin) assessed as quenching constant at 310 K
Homo sapiens [20] = species: Homo sapiens; test: Binding affinity to alpha-glucosidase (unknown origin) assessed as binding constant at 298 K
Rattus norvegicus [21] = species: Rattus norvegicus; test: Inhibition of alpha-glucosidase in rat everted intestinal sleeves assessed as reduction in blood glucose AUC (0-90) within intestinal sleeves at 0.173 mM; format: tissue-based; settings: Intestine, time min 0-90
Homo sapiens [22] = species: Homo sapiens; test: Binding affinity to alpha-glucosidase (unknown origin) assessed as change in the microenvironment of tyrosine and tryptophan residues at 0.33 to 3.32 uM by fluorescence based Synchronous fluorescence spectroscopy; settings: dose microM 0.33-3.32
Rattus norvegicus [23] = species: Rattus norvegicus; test: Inhibition of alpha-glucosidase in rat everted intestinal sleeves assessed as reduction in glucose concentration outside of the intestinal sleeves at 0.173 mM measured after 5 to 90 mins; format: tissue-based; settings: Intestine, time min 5-90
Homo sapiens [24] = species: Homo sapiens; test: Binding affinity to alpha-glucosidase (unknown origin) assessed as Stern-Volmer quenching constant at 298 K
Homo sapiens [25] = species: Homo sapiens; test: Binding affinity to alpha-glucosidase (unknown origin) assessed as Stern-Volmer quenching constant at 310 K
Homo sapiens [26] = species: Homo sapiens; test: Binding affinity to alpha-glucosidase (unknown origin) assessed as quenching constant at 304 K
Homo sapiens [27] = species: Homo sapiens; test: Binding affinity to alpha-glucosidase (unknown origin) assessed as binding constant at 304 K
Homo sapiens [28] = species: Homo sapiens; test: Binding affinity to alpha-glucosidase (unknown origin) assessed as destabilization of enzyme conformation by measuring induction of protein aggregation at 2.5 uM by atomic force microscopy
Homo sapiens [29] = species: Homo sapiens; test: Binding affinity to alpha-glucosidase (unknown origin) assessed as binding constant at 310 K
Homo sapiens [30] = species: Homo sapiens; test: Non-competitive inhibition of alpha-glucosidase (unknown origin) assessed as decrease in Vmax with constant Km at 0.0 to 2.5 uM using p-NPG as substrate by Lineweaver-Burk plot analysis; settings: dose microM 0.0-2.5

CC(C)C(=O)c1ccc(OC(=O)CCl)cc1O
IC50 [1]: Not Active

CC(=O)Oc1cc(O)c(C(=O)C(C)C)cc1C
IC50 [1]: Not Active

CCCCCCC(=O)c1cc(C)c(O)cc1O
IC50 ([1]; read-out: IC50): 40.9 µM

CCC(=O)c1cc(C)c(O)cc1O
IC50 [1]: Not Active

CCC(=O)c1ccc(OC(=O)CI)cc1O
IC50 [1]: Not Active

CC(C)C(=O)c1ccc(OC(=O)CI)cc1O
IC50 ([1]; read-out: IC50): 14.4 µM

Cc1cc(C(=O)C(C)C)c(O)cc1OC(=O)c1ccccc1
IC50 ([1]; read-out: IC50): 14.6 µM

CC(C)C(=O)c1cc(Br)c(OC(=O)CBr)cc1O
IC50 ([1]; read-out: IC50): 15 µM

CCCCC(=O)c1cc(C)c(OC(=O)CI)cc1O
IC50 ([1]; read-out: IC50): 5.58 µM

CC(C)C(=O)c1ccc(OC(=O)C(C)(C)C)cc1O
IC50 ([1]; read-out: IC50): 33.4 µM

CC(C)C(=O)c1cc(Br)c(O)cc1O
IC50 ([1]; read-out: IC50): 29 µM

CC(C)C(=O)c1cc(Br)c(OC(=O)CCl)cc1O
IC50 ([1]; read-out: IC50): 143 µM

CCCCC(=O)c1ccc(OC(=O)CI)cc1O
IC50 [1]: Not Active

CC(=O)Oc1c(C)cc(C(=O)C(C)C)c(O)c1Br
IC50 ([1]; read-out: IC50): 121 µM

Cc1cc(C(=O)C(C)C)c(O)cc1OC(=O)c1ccc(Cl)cc1
IC50 ([1]; read-out: IC50): 10.9 µM

Cc1cc(C(=O)C(C)C)c(O)cc1OC(=O)CI
IC50 ([1]; read-out: IC50): 4.27 µM

CCCCCC(=O)c1ccc(OC(=O)CI)cc1O
IC50 ([1]; read-out: IC50): 8.97 µM

CCCCC(=O)c1ccc(O)cc1O
IC50 [1]: Not Active

CCCCCCCC(=O)c1cc(C)c(OC(=O)CI)cc1O
deltaG (Homo sapiens [2]): -17.7 kJ/mol | Activity (Homo sapiens [3]): 0.75 nm | inhibition (Rattus norvegicus [4]): Active | inhibition (Rattus norvegicus [5]): Active | Activity (Homo sapiens [6]): inactive | Activity (Homo sapiens [7]): 47.5 nm | Activity (Mus musculus [8]): Active | deltaG (Homo sapiens [9]): -18.2 kJ/mol | Activity (Mus musculus [10]): Dose-dependent effect | Ki [11]: 1620 nM | Activity (Homo sapiens [12]): Active | KSV (Homo sapiens [13]): 1.95 10^4L/mol | Kq (Homo sapiens [14]): 2.27 10^12L/mol/s | deltaH (Homo sapiens [15]): -4.28 kJ/mol | deltaG (Homo sapiens [16]): -18 kJ/mol | deltaS (Homo sapiens [17]): 45 J/mol/K | Activity (Homo sapiens [18]): Active | Kq (Homo sapiens [19]): 1.64 10^12L/mol/s | Ka (Homo sapiens [20]): 1.39 10^4L/mol | inhibition (Rattus norvegicus [21]): Active | IC50 ([1]; read-out: IC50): 1.69 µM | Activity (Homo sapiens [22]): inactive | inhibition (Rattus norvegicus [23]): Active | KSV (Homo sapiens [24]): 2.27 10^4L/mol | KSV (Homo sapiens [25]): 1.64 10^4L/mol | Kq (Homo sapiens [26]): 1.95 10^12L/mol/s | Ka (Homo sapiens [27]): 1.34 10^4L/mol | Activity (Homo sapiens [28]): Active | Ka (Homo sapiens [29]): 1.3 10^4L/mol | inhibition (Homo sapiens [30]): Active

CC(C)C(=O)Oc1ccc(C(=O)C(C)C)c(O)c1
IC50 ([1]; read-out: IC50): 72.5 µM

CC(=O)Oc1ccc(C(=O)C(C)C)c(O)c1
IC50 [1]: Not Active

CC(C)C(=O)c1ccc(OC(=O)CBr)cc1O
IC50 ([1]; read-out: IC50): 35.8 µM

Cc1cc(C(=O)C(C)C)c(O)cc1OC(=O)C(C)(C)C
IC50 ([1]; read-out: IC50): 16 µM

CCCCCCC(=O)c1cc(C)c(OC(=O)CI)cc1O
IC50 ([1]; read-out: IC50): 1.77 µM

CCCCC(=O)Oc1cc(O)c(C(=O)C(C)C)cc1C
IC50 ([1]; read-out: IC50): 24.7 µM

CCCCCCCCCC(=O)Oc1cc(O)c(C(=O)C(C)C)cc1C
IC50 ([1]; read-out: IC50): 8.45 µM

CCCCC(=O)c1cc(C)c(O)cc1O
IC50 [1]: Not Active

Cc1cc(C(=O)C(C)C)c(O)cc1OC(=O)CBr
IC50 ([1]; read-out: IC50): 14.9 µM

CC(=O)Oc1cc(O)c(C(=O)C(C)C)cc1Br
IC50 [1]: Not Active

Cc1cc(C(=O)C(C)C)c(O)c(Br)c1O
IC50 ([1]; read-out: IC50): 21 µM
